Experimental data reported in PubChem BioAssay (NCI).
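Values below derive from 48-hour exposures of cells grown in 96-well plates, with endpoints linearly interpolated between the two concentrations bracketing the appropriate inhibition level. GI50 = concentration required for 50% inhibition of growth. TGI: total growth inhibition.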

Experiments:
Test in all cases: inhibition of tumour cell growth, NCI panel, 48 h
[1] = test system: NCI-H460 lung
[2] = test system: NCI-H522 lung
[3] = test system: NCI/ADR-RES ovarian
[4] = test system: OVCAR-3 ovarian
[5] = test system: OVCAR-4 ovarian
[6] = test system: OVCAR-5 ovarian
[7] = test system: OVCAR-8 ovarian
[8] = test system: PC-3 prostate
[9] = test system: RPMI-8226 leukemia
[10] = test system: RXF 393 renal
[11] = test system: SF-268 CNS
[12] = test system: SF-295 CNS
[13] = test system: SF-539 CNS
[14] = test system: SK-MEL-2 melanoma
[15] = test system: SK-MEL-28 melanoma
[16] = test system: SK-MEL-5 melanoma
[17] = test system: SK-OV-3 ovarian
[18] = test system: SN12C renal
[19] = test system: SNB-19 CNS
[20] = test system: SNB-75 CNS
[21] = test system: SR leukemia
[22] = test system: SW-620 colon
[23] = test system: T-47D breast
[24] = test system: TK-10 renal
[25] = test system: U251 CNS
[26] = test system: UACC-257 melanoma
[27] = test system: UACC-62 melanoma
[28] = test system: UO-31 renal

Cc1nc(-c2cc3ccccc3oc2=O)ccc1C(=O)/C=C/c1ccccn1
GI50 [1]: > 100 µM | TGI [1]: > 100 µM | GI50 [2]: > 100 µM | TGI [2]: > 100 µM | GI50 [3]: > 100 µM | TGI [3]: > 100 µM | GI50 [4]: > 100 µM | TGI [4]: > 100 µM | GI50 [5]: > 100 µM | TGI [5]: > 100 µM | GI50 [6]: > 100 µM | TGI [6]: > 100 µM | GI50 [7]: > 100 µM | TGI [7]: > 100 µM | GI50 [8]: > 100 µM | TGI [8]: > 100 µM | GI50 [9]: 3.41 µM | TGI [9]: > 100 µM | GI50 [10]: > 100 µM | TGI [10]: > 100 µM | GI50 [11]: > 100 µM | TGI [11]: > 100 µM | GI50 [12]: > 100 µM | TGI [12]: > 100 µM | GI50 [13]: > 100 µM | TGI [13]: > 100 µM | GI50 [14]: > 100 µM | TGI [14]: > 100 µM | GI50 [15]: > 100 µM | TGI [15]: > 100 µM | GI50 [16]: > 100 µM | TGI [16]: > 100 µM | GI50 [17]: > 100 µM | TGI [17]: > 100 µM | GI50 [18]: > 100 µM | TGI [18]: > 100 µM | GI50 [19]: > 100 µM | TGI [19]: > 100 µM | GI50 [20]: > 100 µM | TGI [20]: > 100 µM | GI50 [21]: 5.3 µM | TGI [21]: > 100 µM | GI50 [22]: 6.77 µM | TGI [22]: > 100 µM | GI50 [23]: > 100 µM | TGI [23]: > 100 µM | GI50 [24]: > 100 µM | TGI [24]: > 100 µM | GI50 [25]: 8.49 µM | TGI [25]: > 100 µM | GI50 [26]: > 100 µM | TGI [26]: > 100 µM | GI50 [27]: > 100 µM | TGI [27]: > 100 µM | GI50 [28]: > 100 µM | TGI [28]: > 100 µM
